{"source": "patent US20060083657A1", "about": "“Indicator device having an active agent encapsulated in an electrospun nanofiber” (STERIS Inc., priority 2004, published 2006)", "key": {"[1]": {"tested_on": "Staphylococcus aureus ATCC 6538", "test": "Disk diffusion method, zone of inhibition on lawn plates", "format": "cell-based", "details": "polymer mat disk, 37° C., 7 days", "description": "(§1) The effectiveness of the CHG polymer mat was investigated using a disk diffusion method on Staphylococcus aureus ATCC 6538 and Escherichia coli ATCC 25922 lawn plates. The plates were prepared for each organism by dispensing and spreading 0.1 mL of the bacterium over the entire surface of prepared tryptic soy agar plates to create a “lawn.” Concentrations of chlorhexidine gluconate (CHG) at 0.25%, 0.5%, and 1.0% were electrospun with Tecoflex to produce an antimicrobial polymer mat. The polymer mats were cut into two 0.5-1.0 inch diameter disks for each CHG concentration. One disk per plate was placed into the center of the bacterial plate The plates were then incubated at 37° C. for 7 days to determine the zone of inhibition or antimicrobial coverage around the disk (measured in millimeters diameter), which simulates the persistence of an antimicrobial dressing to inactivate resident microorganisms on the skin. For S. aureus, 0.25%, 0.50%, and 1.0% CHG was effective showing mean zones of 20 mm, 25 mm, and 25 mm zones, respectively at 7 days, while at the same concentrations E. coli mean zones were 11 mm, 23 mm, and 28 mm."}, "[2]": {"tested_on": "Escherichia coli ATCC 25922", "test": "Disk diffusion method, zone of inhibition on lawn plates", "format": "cell-based", "details": "polymer mat disk, 37° C., 7 days", "description": "as §1"}, "[3]": {"details": "0.25% CHG electrospun with Tecoflex"}, "[4]": {"details": "0.50% CHG electrospun with Tecoflex"}, "[5]": {"details": "1.0% CHG electrospun with Tecoflex"}}}
{"smiles": "N=C(NCCCCCCNC(=N)NC(=N)Nc1ccc(Cl)cc1)NC(=N)Nc1ccc(Cl)cc1.O=C(O)[C@H](O)[C@@H](O)[C@H](O)[C@H](O)CO.O=C(O)[C@H](O)[C@@H](O)[C@H](O)[C@H](O)CO", "note": "[CHG, Chlorhexidine Gluconate]", "values": [{"measurement": "mean zone of inhibition (diameter)", "setting": "[1]; [3]", "result": 20, "unit": "mm"}, {"measurement": "mean zone of inhibition (diameter)", "setting": "[1]; [4]", "result": 25, "unit": "mm"}, {"measurement": "mean zone of inhibition (diameter)", "setting": "[1]; [5]", "result": 25, "unit": "mm"}, {"measurement": "mean zone of inhibition (diameter)", "setting": "[2]; [3]", "result": 11, "unit": "mm"}, {"measurement": "mean zone of inhibition (diameter)", "setting": "[2]; [4]", "result": 23, "unit": "mm"}, {"measurement": "mean zone of inhibition (diameter)", "setting": "[2]; [5]", "result": 28, "unit": "mm"}]}
